Source: paper PMC4096598 (PLoS ONE, 2014)
Where “and” joins values, the source holds several entries; their conditions need not be identical. Equal values may be shown once. Read-outs that look alike come from different tables or passages of the source. Marks after values point to notes of the source that are not given here. Ends that are not written are not given here.

Key:
[1] = tested on: Mycobacterium tuberculosis H37Rv (ATCC 27294); settings: 24 h
[2] = tested on: Staphylococcus aureus (ATCC 25923)
human red blood cells = experiment: Hemolytic assay; assay type: cell-based; settings: 1 h at room temperature; for IC50: human red blood cells, absorbance 570 nm, vs 10% Triton X-100, mean and 95% confidence intervals, NO = no observed hemolytic activity at 100 µM, read-out: Hemolysis (IC50); for hemolysis of human erythrocytes: relative to 10% Triton X-100, average of at least four independent experiments
Experimental: Hemolytic activity was determined by incubating suspensions of human red blood cells with serial dilutions of each selected peptides. Red blood cells were rinsed several times in PBS by centrifugation for 3 min at 3,000 g until the OD of the supernatant reached the OD of the control (PBS only). Red blood cells were counted by a hemocytometer and adjusted to 7.7×10^6±0.3×10^6 cells/mL. Red blood cells were then incubated at room temperature for 1 h in 10% Triton X-100 (positive control), in PBS (blank), or with amphipathic peptides at concentrations of 0.4, 0.8, 1.6, 3.1, 6.2, 12.5 and 25 µM, only for Pin2 [14] and Pin2 [17] the 50 and 100 µM concentrations were evaluated. The samples were then centrifuged at 10,000 g for 5 min, the supernatant was separated from the pellet, and its absorbance measured at 570 nm. The relative optical density compared to that of the suspension treated with 10% Triton X-100 was defined as the percentage of hemolysis.
The experimental values represent means ± standard deviations. The hemolytic constants (IC50) were obtained using a non-linear regression where the data was fit to a Boltzmann sigmoid equation. To determine statistically significant differences, an analysis of variance (ANOVA) followed by post hoc testing using the Tukey's method was performed using the software package Prism 4 (GraphPad, Inc., USA). Statistical significances were accepted at p<0.05.

[3] = tested on: Escherichia coli (ATCC 25922); settings: ATCC 25922, 10 h
[4] = tested on: Staphylococcus aureus (ATCC 25923); settings: ATCC 25923, 10 h
[5] = tested on: Escherichia coli (ATCC 25922)
[6] = tested on: Mycobacterium tuberculosis H37Rv (ATCC 27294); settings: literature value ref Rastogi, et al., 1996 [55]; cited from earlier work

Molecule	MIC Mycobacterium tuberculosis H37Rv [1] [µM]	MIC S. aureus [2] [µM]	IC50 (human red blood cells) [µM]	hemolysis of human erythrocytes (human red blood cells; peptide at 25 µM) [%]	MIC E. coli [3]	MIC S. aureus [4]	MIC E. coli [5] [µM]	MIC Mycobacterium tuberculosis H37Rv [6]	hemolysis of human erythrocytes (human red blood cells; peptide at 100 µM) [%]
FWGALAKGALKLIPSLFSSFSKKD [Pin2, Pandinin 2, reference compound]	22.1 ± 8.6	37.5	3.3	91	12.5 µM	12.5 µM	18.8		
CO[C@H]1/C=C/O[C@@]2(C)Oc3c(C)c(O)c4c(O)c(c(/C=N/N5CCN(C)CC5)c(O)c4c3C2=O)NC(=O)/C(C)=C\C=C\[C@H](C)[C@H](O)[C@@H](C)[C@@H](O)[C@@H](C)[C@H](OC(C)=O)[C@@H]1C [Rifampicin]								0.4 µg/mL and 0.5 µM	
FWGALAKGALKLIGSLFSSFSKKD [Pin2 [G]]	18.7	12.5	1.4	100	12.5 µM	12.5 µM	12.5		
FWGALAKGALKLIGPGSLFSSFSKKD [Pin2 [GPG]]	29 ± 9	25		30	12.5 µM	12.5 µM	25		
FWGLKGLKKFSKKL [Pin2 [14]]	11.92 ± 3.7	>300			25 µM	>25 ^† µM	25		25
FWGLKGLKGPGKFSKKL [Pin2 [17]]		80			>25 ^† µM	>25 µM	25		
CC[C@@H](CO)NCCN[C@@H](CC)CO [Ethambutol]								0.5 µg/mL and 2.5 µM	
